From patent publication US20210154317A1, “COMPOSITIONS AND METHODS FOR THE TREATMENT OF VIRAL INFECTIONS” (Silverback Therapeutics, Inc., priority 2017, published 2021)

Tested on: monax PBMC
Experiment: Marmota TNFα expression in stimulated PBMC by real time PCR
Type: cell-based
Conditions: TaqMan real time PCR
Protocol: Total RNA was extracted from stimulated monax PBMC using the RNeasy®Mini kit (Qiagen, Maryland, MD) according to the manufacturer's protocol. Briefly, cells were pelleted and resuspended in 600 ul RLT buffer. The sample was vortexed and then run through a QIAshredder column. RNA was extracted from the supernatant and eluted with a 30 uL volume. RNA purity was assessed (A260/A280) using a Nanodrop one spectrophotometer (Thermofisher Scientific, Waltham, Mass., USA). For removal of genomic DNA, 800 ng RNA was incubated with 2 units DNase I (RNase-free) (New England Biolabs, Ipswich, Mass., USA) in DNase reaction buffer at 37° C. for 10 min. […]
The generation of oligonucleotide dimers for each TaqMan primer pair was assessed using Power SYBR®Green PCR Master-Mix (Foster City, Calif., Applied Biosystems) with melting curve analysis, according to the manufacturer's instructions. […] Data were analyzed using the Step One Software to generate Ct value for each sample.
A plot of Ct versus log copy number standard curve was generated using synthesized monax TNFα cDNA standard. The Ct value for each data point was then determined and normalized to the standard curve to obtain the copy number. […]

SMILES | monax TNFα gene activation (copy number per ng of mRNA)
CCOCc1nc2c(N)nc3ccccc3c2n1CC(C)(C)OCCNC(=O)C(C)(C)N | potent activation
CCCN(CCC)C(=O)C1=Cc2ccc(C(=O)Nc3cnc4c(c3)CNCC4)cc2N=C(N)C1 [Compound 1.50, 2-amino-N^4,N^4-dipropyl-N^8-(5,6,7,8-tetrahydro-1,6-naphthyridin-3-yl)-3H-benzo[b]azepine-4,8-dicarboxamide] | potent activation
